Common to all, as to assay type: cell-based, human
The subject of test [1] is monocyte-derived DC. The test can be described thus: IL-12 production by DC in DC-γδ T cell cocultures (ELISA). As to the method: FIG. 3: γδ T cells induce IL-12 production by DC. Monocyte-derived DC were cocultured alone or in the presence of BrHpp only or cocultured with unstimulated or BrHpp-activated γδ T in absence or presence of either anti-TNF-α, anti-IFN-γ neutralizing mAbs or both. After 24 h of culture, supernatants were assayed for IL12-p40 and p70 levels by ELISA. Results were expressed as mean±SEM of 6 independent experiments. • * p<0.05 compared to DC cultured in medium alone or containing BrHpp • ** p<0.05 compared to DC stimulated with BrHPP-activated γδ T cells in the absence of mAb.
(§1) Cell culture conditions. γδ T cells (7.5 10^5 cells/500 μl) were cultured for 24 h in flat-bottomed 24-well plates in culture medium supplemented or not with BrHpp (200 nM). Autologous DC (10^6 cells/500 μl) were added to γδ T cell cultures for another 24 h and analyzed for the expression of surface markers and for their ability to release cytokines. In parallel, DC (10^6 cells/ml) were cultured for 24 h in 24-well plates either in medium alone, or in presence of BrHpp (100 nM). In some experiments, anti-TNF-α (20 μg/ml) or anti-IFN-γ (15 μg/ml) neutralizing monoclonal antibody (mAb) or their isotypic control used at similar concentration (Biosource Fleurus, Belgium) were added to DC-γδ T cell cocultures. In parallel, DC and γδ T cells were cocultured in a transwell culture system (Costar, Belgium).
(§2) Determination of cytokine levels. TNF-α, IL-12 p-40 and IFN-γ levels in culture supernatants were determined by ELISA kits from Biosource. IL-12 p70 levels were measured using the Endogen Elisa kit (Endogen, Belgium).

The subject of another test is γδ T cells. The test can be described thus: TNF-α and IFN-γ production by γδ T cells (ELISA). Here is the method:
γδ T cells (7.5 10^5 cells/500 μl) were either cultured in medium alone or stimulated with BrHpp (200 nM). After 48 h, culture supernatants were assayed by ELISA for TNF-α and IFN-γ levels.
For γδ T cell isolation, cells expressing γ-δ receptors on their membrane were positively selected using immunomagnetic depletion (Miltenyi Sanvertech, Belgium). Briefly, non-adherent PBMC containing 2 to 5% of γδ T cells were incubated with biotin-conjugated anti-γδ T cell receptor (TCR) antibodies for 15 min at 4° C., washed three times, and then incubated with immunomagnetic beads coated with streptavidin.
Cell culture conditions. γδ T cells (7.5 10^5 cells/500 μl) were cultured for 24 h in flat-bottomed 24-well plates in culture medium supplemented or not with BrHpp (200 nM). Autologous DC (10^6 cells/500 μl) were added to γδ T cell cultures for another 24 h and analyzed for the expression of surface markers and for their ability to release cytokines. In parallel, DC (10^6 cells/ml) were cultured for 24 h in 24-well plates either in medium alone, or in presence of BrHpp (100 nM). […] In parallel, DC and γδ T cells were cocultured in a transwell culture system (Costar, Belgium).
as §2
On the technique in general: An ELISA detects its analyte on a solid surface through an enzyme-linked reagent.

For test [2], the system named is monocyte-derived DC. The test can be described thus: Phenotypic changes of DC upon coculture with γδ T cells (flow cytometry). Here is the method:
DC cultures were cultured for 24 alone, in the presence of BrHpp (200 nM) only, or with γδ T cells activated by BrHpp as described in example 1. Neutralizing anti-TNF or anti-IFNγ Ab was added at a concentration of 20 and 15 μg/ml, respectively. The expression of HLA-DR, CD86, and CD83 on DC was measured by flow cytometry and expressed as means+/−SEM of mean fluorescence intensity in five independent experiments on different healty donors. • ^1 p<0.05 compared to DC cultured alone or with BrHpp only. • ^2 p<0.05 compared to DC cultured with activated γδ T cells in absence of mAb.
Purification of γδ T cells and DC generation. Peripheral blood mononuclear cells (PBMC) from healthy volunteers were isolated by density centrifugation of heparinized blood on Lymphoprep (Nycomed, Oslo, Norway), washed with HBSS, resuspended in culture medium and allowed to adhere In culture flasks for 2 h at 37° C. Non-adherent cells were removed and adherent monocytes were cultured during 6 days in presence of 500 U/ml granulocyte macrophage colony-stimulating factor (GM-CSF) (Leucomax, Schering-Plough Kenilworth, N.J.) and 800 U/ml of IL-4 (Cellgenix, Freiburg, Germany). The resulting cell preparation routinely contained >90% DC as assessed by morphology and FACS analysis.
as §1
Immunophenotyping by flow cytometry. Monocyte-derived DC were stained using PE-labeled specific mAb HLA-DR, CD86, CD83 (Beckton-Dickinson, Mountain view, CA). FITC-conjugated anti-TCR γδ mAb (Becton-Dickinson, San Jose, Calif.) was used to assess γδ T cell purity and to exclude them in flow cytometry analysis of DC in DC-γδ T cell cocultures. Briefly, 5×10^5 cells were incubated with the relevant mAbs or their isotype-matched controls for 20 min at 4° C., washed and fluorescence intensity was analyzed using a FACS-Calibur (Becton-Dickinson).
Background: In flow cytometry, cells or beads pass a laser one at a time.

Setting [3] is: γδ T cells 7.5 10^5 cells/500 μl, BrHpp 200 nM, 48 h, culture supernatant, mean±SEM of 13 experiments.
Where [4] appears, read: DC cultured 24 h with BrHpp (200 nM) only, mean+/-SEM, 5 experiments.

With `CC(O)(CBr)CCOP(=O)(O)OP(=O)(O)O` (centres unmarked) [BrHpp, bromohydrin pyrophosphate], in the test with monocyte-derived DC [1] (DC cultured in absence of γδ T cells), the “effect on IL-12 production by DC” value is listed as “no effect”. For the same molecule, the “induction of IL-12 (p70) synthesis” value with monocyte-derived DC [1] (DC-γδ T cell coculture in the presence of BrHpp) was “detected”. Besides, in the test with monocyte-derived DC [1] (DC-γδ T cell coculture in the presence of BrHpp versus without BrHpp), the “increase in IL-12 (p40) levels” value came to 3 fold. In the test with γδ T cells (text statement on table 1), the “effect on IFN-γ secretion by γδ T cells” value was “induced” and the “effect on basal production of TNF-α by γδ T cells” value is recorded as “further increased”. Moreover, in the test with γδ T cells (setting [3]), the IFN-γ is reported as 452 ± 76^1 pg/ml and the TNF-α is 17406 ± 1290^1 pg/ml. Moreover, in the test on monocyte-derived DC [2] (setting [4]), the “CD83 expression on DC (mean fluorescence intensity)” value is given as 69 +/− 14, the “CD86 expression on DC (mean fluorescence intensity)” value was 308 +/− 205 and the “HLA DR expression on DC (mean fluorescence intensity)” value is recorded as 610 +/− 354. Also, in the test with monocyte-derived DC [2] (γδT cells preactivated with BrHpp versus not preactivated), the “effect of preactivation of γδT cells on upregulation of HLA-DR, CD86 and CD83 on DC” value was “did not result in a further increase”.

These data come from patent publication US20050042751A1, “Generation and use of new types of dendritic cells” (priority 2001, published 2005).
